Data from US20210101874A1, “MICROBIOCIDAL OXADIAZOLE DERIVATIVES” (SYNGENTA PARTICIPATIONS AG, priority 2017, published 2021).

How the values were obtained:
[1] = tested on: Puccinia recondita f. sp. Tritici; test: Puccinia recondita f. sp. tritici / wheat / leaf disc preventative (brown rust); type: in vivo; conditions: foliar, 200 ppm in the applied formulation, wheat leaf segments cv. Kanzler, inoculated 1 day after application, compared to untreated, assessed 7 to 9 days after application, read-out: disease control
In short: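 Compound, diluted from DMSO solution into aqueous 0.025% Tween20, is sprayed at 200 ppm onto cut wheat segments (cv. Kanzler) placed on water agar. One day on, segments receive a fungal spore suspension and are incubated at 19° C., 75% rh, 12 h photoperiod, with % control vs untreated scored at 7–9 days.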

[2] = tested on: Puccinia recondita f. sp. Tritici; test: Puccinia recondita f. sp. tritici / wheat / leaf disc curative (brown rust); type: in vivo; conditions: foliar, 200 ppm in the applied formulation, wheat leaf segments cv. Kanzler, applied 1 day after inoculation, compared to untreated, assessed 6 to 8 days after application, read-out: disease control
Procedure: Leaf disks or leaf segments of various plant species are cut from plants grown in a greenhouse. The cut leaf disks or segments are placed in multiwell plates (24-well format) onto water agar. The leaf disks are sprayed with a test solution before (preventative) or after (curative) inoculation. Compounds to be tested are prepared as DMSO solutions (max. 10 mg/ml) which are diluted to the appropriate concentration with 0.025% Tween20 just before spraying. The inoculated leaf disks or segments are incubated under defined conditions (temperature, relative humidity, light, etc.) according to the respective test system. A single evaluation of disease level is carried out 3 to 14 days after inoculation, depending on the pathosystem. Percent disease control relative to the untreated check leaf disks or segments is then calculated.
Wheat leaf segments cv. Kanzler are placed on agar in multiwell plates (24-well format). The leaf segments are then inoculated with a spore suspension of the fungus. Plates were stored in darkness at 19° C. and 75% relative humidity. The formulated test compound diluted in water was applied 1 day after inoculation. The leaf segments were incubated at 19° C. and 75% relative humidity under a light regime of 12 hours light/12 hours darkness in a climate cabinet and the activity of a compound was assessed as percent disease control compared to untreated when an appropriate level of disease damage appears in untreated check leaf segments (6 to 8 days after application).
The following compounds at 200 ppm in the applied formulation give at least 80% disease control in this test when compared to untreated control leaf disks under the same conditions, which show extensive disease development.

[3] = tested on: Glomerella lagenarium (Colletotrichum lagenarium); test: Glomerella lagenarium (Colletotrichum lagenarium) liquid culture / cucumber / preventative (anthracnose); type: cell-based; conditions: Colletotrichum orbiculare; 20 ppm in the applied formulation; conidia in PDB nutrient broth, 24° C.; 3 to 4 days after application; compared to untreated; read-out: disease control (inhibition of growth measured photometrically)
In short: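 Cryostored conidia in potato dextrose broth added to compound diluted from DMSO solution, 96-well format. Plates incubated at 24 °C. Growth inhibition read photometrically 3 to 4 days after application, as percent activity versus untreated check.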

CCN(Cc1ccc(-c2noc(C(F)(F)F)n2)cc1)S(=O)(=O)CC [Compound 1.61, N-ethyl-N-[[4-[5-(trifluoromethyl)-1,2,4-oxadiazol-3-yl]phenyl]methyl] ethanesulfonamide]
≥ 80%: pest or weed control at 200 ppm [1] | pest or weed control at 200 ppm [2] | inhibition at 20 ppm [3]

CCN(Cc1ccc(-c2noc(C(F)(F)F)n2)cc1)S(C)(=O)=O [Compound 1.62, N-ethyl-N-[[4-[5-(trifluoromethyl)-1,2,4-oxadiazol-3-yl]phenyl]methyl] methanesulfonamide]
≥ 80%: pest or weed control at 200 ppm [1] | pest or weed control at 200 ppm [2] | inhibition at 20 ppm [3]

CCN(Cc1ccc(-c2noc(C(F)(F)F)n2)cc1)S(=O)(=O)NC [Compound 1.63, 3-[4-[[ethyl (methylsulfamoyl)amino]methyl]phenyl]-5-(trifluoromethyl)-1,2,4-oxadiazole]
≥ 80%: pest or weed control at 200 ppm [1] | pest or weed control at 200 ppm [2] | inhibition at 20 ppm [3]

CCN(Cc1ccc(-c2noc(C(F)(F)F)n2)cc1)S(=O)(=O)N(C)C [Compound 1.64, N-(dimethylsulfamoyl)-N-[[4-[5-(trifluoromethyl)-1,2,4-oxadiazol-3-yl]phenyl]methyl] ethanamine]
≥ 80%: pest or weed control at 200 ppm [1] | pest or weed control at 200 ppm [2] | inhibition at 20 ppm [3]

CCCN(Cc1ccc(-c2noc(C(F)(F)F)n2)cc1)S(=O)(=O)C1CC1 [Compound 1.69, N-propyl-N-[[4-[5-(trifluoromethyl)-1,2,4-oxadiazol-3-yl]phenyl]methyl] cyclopropanesulfonamide]
≥ 80%: pest or weed control at 200 ppm [1] | pest or weed control at 200 ppm [2] | inhibition at 20 ppm [3]

CCCN(Cc1ccc(-c2noc(C(F)(F)F)n2)cc1)S(=O)(=O)CCOC [Compound 1.73, 2-methoxy-N-propyl-N-[[4-[5-(trifluoromethyl)-1,2,4-oxadiazol-3-yl]phenyl]methyl] ethanesulfonamide]
≥ 80%: pest or weed control at 200 ppm [1] | pest or weed control at 200 ppm [2] | inhibition at 20 ppm [3]

CCCN(Cc1ccc(-c2noc(C(F)(F)F)n2)cc1)S(=O)(=O)CC(=O)OC [Compound 1.76, methyl 2-[propyl-[[4-[5-(trifluoromethyl)-1,2,4-oxadiazol-3-yl]phenyl]methyl]sulfamoyl]acetate]
≥ 80%: pest or weed control at 200 ppm [1] | pest or weed control at 200 ppm [2] | inhibition at 20 ppm [3]

CCCN(Cc1ccc(-c2noc(C(F)(F)F)n2)cc1)S(C)(=O)=O [Compound 1.79, N-propyl-N-[[4-[5-(trifluoromethyl)-1,2,4-oxadiazol-3-yl]phenyl]methyl] methanesulfonamide]
≥ 80%: pest or weed control at 200 ppm [1] | pest or weed control at 200 ppm [2] | inhibition at 20 ppm [3]

CC(C)N(Cc1ccc(-c2noc(C(F)(F)F)n2)cc1)S(=O)(=O)c1ccn(C)n1 [Compound 1.82, N-isopropyl-1-methyl-N-[[4-[5-(trifluoromethyl)-1,2,4-oxadiazol-3-yl]phenyl]methyl] pyrazole-3-sulfonamide]
≥ 80%: pest or weed control at 200 ppm [1] | pest or weed control at 200 ppm [2] | inhibition at 20 ppm [3]

COCCS(=O)(=O)N(Cc1ccc(-c2noc(C(F)(F)F)n2)cc1)C(C)C [Compound 1.83, N-isopropyl-2-methoxy-N-[[4-[5-(trifluoromethyl)-1,2,4-oxadiazol-3-yl]phenyl]methyl] ethanesulfonamide]
≥ 80%: pest or weed control at 200 ppm [1] | pest or weed control at 200 ppm [2] | inhibition at 20 ppm [3]

C/C=C/S(=O)(=O)N(Cc1ccc(-c2noc(C(F)(F)F)n2)cc1)C(C)C [Compound 1.84, (E)-N-isopropyl-N-[[4-[5-(trifluoromethyl)-1,2,4-oxadiazol-3-yl]phenyl]methyl] prop-1-ene-1-sulfonamide]
≥ 80%: pest or weed control at 200 ppm [1] | pest or weed control at 200 ppm [2] | inhibition at 20 ppm [3]

COC(=O)CS(=O)(=O)N(Cc1ccc(-c2noc(C(F)(F)F)n2)cc1)C(C)C [Compound 1.85, methyl 2-[isopropyl-[[4-[5-(trifluoromethyl)-1,2,4-oxadiazol-3-yl]phenyl]methyl]sulfamoyl]acetate]
≥ 80%: pest or weed control at 200 ppm [1] | pest or weed control at 200 ppm [2] | inhibition at 20 ppm [3]

CC(C)N(Cc1ccc(-c2noc(C(F)(F)F)n2)cc1)S(C)(=O)=O [Compound 1.86, N-isopropyl-N-[[4-[5-(trifluoromethyl)-1,2,4-oxadiazol-3-yl]phenyl]methyl] methanesulfonamide]
≥ 80%: pest or weed control at 200 ppm [1] | pest or weed control at 200 ppm [2] | inhibition at 20 ppm [3]

CNS(=O)(=O)N(Cc1ccc(-c2noc(C(F)(F)F)n2)cc1)C(C)C [Compound 1.87, 3-[4-[[isopropyl (methylsulfamoyl)amino]methyl]phenyl]-5-(trifluoromethyl)-1,2,4-oxadiazole]
≥ 80%: pest or weed control at 200 ppm [1] | pest or weed control at 200 ppm [2] | inhibition at 20 ppm [3]

CC(C)N(Cc1ccc(-c2noc(C(F)(F)F)n2)cc1)S(=O)(=O)C1CC1 [Compound 1.98, N-isopropyl-N-[[4-[5-(trifluoromethyl)-1,2,4-oxadiazol-3-yl]phenyl]methyl] cyclopropanesulfonamide]
≥ 80%: pest or weed control at 200 ppm [1] | pest or weed control at 200 ppm [2] | inhibition at 20 ppm [3]

CC(C)N(Cc1ccc(-c2noc(C(F)(F)F)n2)cc1)S(=O)(=O)N(C)C [Compound 1.100, N-(dimethylsulfamoyl)-N-[[4-[5-(trifluoromethyl)-1,2,4-oxadiazol-3-yl]phenyl]methyl] propan-2-amine]
≥ 80%: pest or weed control at 200 ppm [1] | pest or weed control at 200 ppm [2] | inhibition at 20 ppm [3]

CCN(Cc1ccc(-c2noc(C(F)(F)F)n2)cc1F)S(=O)(=O)N(C)C [Compound 1.105, N-(dimethylsulfamoyl)-N-[[2-fluoro-4-[5-(trifluoromethyl)-1,2,4-oxadiazol-3-yl]phenyl]methyl] ethanamine]
≥ 80%: pest or weed control at 200 ppm [1] | pest or weed control at 200 ppm [2] | inhibition at 20 ppm [3]

CCN(Cc1ccc(-c2noc(C(F)(F)F)n2)c(F)c1)S(=O)(=O)N(C)C [Compound 1.106, N-(dimethylsulfamoyl)-N-[[3-fluoro-4-[5-(trifluoromethyl)-1,2,4-oxadiazol-3-yl]phenyl]methyl] ethanamine]
≥ 80%: pest or weed control at 200 ppm [1] | pest or weed control at 200 ppm [2] | inhibition at 20 ppm [3]

CCN(Cc1ccc(-c2noc(C(F)(F)F)n2)c(F)c1F)S(=O)(=O)N(C)C [Compound 1.107, N-[[2,3-difluoro-4-[5-(trifluoromethyl)-1,2,4-oxadiazol-3-yl]phenyl]methyl]-N-(dimethylsulfamoyl) ethanamine]
≥ 80%: pest or weed control at 200 ppm [1] | pest or weed control at 200 ppm [2] | inhibition at 20 ppm [3]

CCCS(=O)(=O)NCc1ccc(-c2noc(C(F)(F)F)n2)cc1 [Compound 2.4, N-[[4-[5-(trifluoromethyl)-1,2,4-oxadiazol-3-yl]phenyl]methyl] propane-1-sulfonamide]
≥ 80%: pest or weed control at 200 ppm [1] | pest or weed control at 200 ppm [2] | inhibition at 20 ppm [3]

CCCS(=O)(=O)NCc1ccc(-c2noc(C(F)(F)F)n2)c(F)c1 [Compound 2.5, N-[[3-fluoro-4-[5-(trifluoromethyl)-1,2,4-oxadiazol-3-yl]phenyl]methyl] propane-1-sulfonamide]
≥ 80%: pest or weed control at 200 ppm [1] | pest or weed control at 200 ppm [2] | inhibition at 20 ppm [3]

CCCS(=O)(=O)NCc1ccc(-c2noc(C(F)(F)F)n2)cc1F [Compound 2.6, N-[[2-fluoro-4-[5-(trifluoromethyl)-1,2,4-oxadiazol-3-yl]phenyl]methyl] propane-1-sulfonamide]
≥ 80%: pest or weed control at 200 ppm [1] | pest or weed control at 200 ppm [2] | inhibition at 20 ppm [3]

C=CCS(=O)(=O)NCc1ccc(-c2noc(C(F)(F)F)n2)cc1 [Compound 2.7, N-[[4-[5-(trifluoromethyl)-1,2,4-oxadiazol-3-yl]phenyl]methyl] prop-2-ene-1-sulfonamide]
≥ 80%: pest or weed control at 200 ppm [1] | pest or weed control at 200 ppm [2] | inhibition at 20 ppm [3]

COC(=O)CCS(=O)(=O)NCc1ccc(-c2noc(C(F)(F)F)n2)cc1 [Compound 2.8, methyl 3-[[4-[5-(trifluoromethyl)-1,2,4-oxadiazol-3-yl]phenyl]methyl-sulfamoyl] propanoate]
≥ 80%: pest or weed control at 200 ppm [1] | pest or weed control at 200 ppm [2] | inhibition at 20 ppm [3]
